Assay results from US20260216199A1, “RAF INHIBITOR AND KRAS G12C INHIBITOR COMBINATION THERAPY” (Erasca, Inc., priority 2023, published 2026).

Tests used:
[1] = target: BRAF (Homo sapiens, UniProt P15056); test: BRAF inhibition; assay type: biochemical
[2] = target: CRAF (Homo sapiens, UniProt P04049); test: CRAF inhibition; assay type: biochemical
[3] = test system: cell lines that contain a variety of mutations that activate MAPK signaling; test: Cell-based anti-proliferative assays; conditions: cell lines with mutations that activate MAPK signaling
[4] = test system: NSCLC-derived Calu-6 (KRAS Q61K); test: In vivo KRAS-mutant tumor model Calu-6; conditions: Calu-6 (KRAS Q61K) model, well-tolerated doses
[5] = test system: NCI-H358 (KRAS G12C); test: In vivo KRAS-mutant tumor model NCI-H358; conditions: well-tolerated doses

Sequence of BRAF (P15056 whole entry): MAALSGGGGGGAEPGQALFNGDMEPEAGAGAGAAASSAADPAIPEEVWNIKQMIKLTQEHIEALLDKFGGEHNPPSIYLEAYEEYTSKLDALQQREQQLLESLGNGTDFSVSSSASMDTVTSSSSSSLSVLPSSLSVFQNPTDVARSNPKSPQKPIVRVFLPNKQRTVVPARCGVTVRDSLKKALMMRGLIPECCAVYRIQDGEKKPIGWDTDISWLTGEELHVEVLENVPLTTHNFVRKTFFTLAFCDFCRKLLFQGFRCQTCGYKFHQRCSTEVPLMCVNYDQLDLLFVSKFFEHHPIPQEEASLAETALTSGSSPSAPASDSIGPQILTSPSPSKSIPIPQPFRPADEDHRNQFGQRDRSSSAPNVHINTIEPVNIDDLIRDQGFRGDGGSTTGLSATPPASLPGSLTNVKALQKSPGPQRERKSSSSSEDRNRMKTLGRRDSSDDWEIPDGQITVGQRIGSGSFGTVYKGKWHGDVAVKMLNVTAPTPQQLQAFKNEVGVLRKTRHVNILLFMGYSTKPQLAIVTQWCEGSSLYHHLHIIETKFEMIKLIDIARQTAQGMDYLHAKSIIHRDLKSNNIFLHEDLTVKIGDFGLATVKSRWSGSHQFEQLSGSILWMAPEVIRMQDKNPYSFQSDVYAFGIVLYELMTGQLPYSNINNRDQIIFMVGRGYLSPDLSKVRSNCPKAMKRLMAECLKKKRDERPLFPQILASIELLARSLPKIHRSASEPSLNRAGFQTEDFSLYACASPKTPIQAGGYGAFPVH
Sequence of CRAF (P04049 whole entry): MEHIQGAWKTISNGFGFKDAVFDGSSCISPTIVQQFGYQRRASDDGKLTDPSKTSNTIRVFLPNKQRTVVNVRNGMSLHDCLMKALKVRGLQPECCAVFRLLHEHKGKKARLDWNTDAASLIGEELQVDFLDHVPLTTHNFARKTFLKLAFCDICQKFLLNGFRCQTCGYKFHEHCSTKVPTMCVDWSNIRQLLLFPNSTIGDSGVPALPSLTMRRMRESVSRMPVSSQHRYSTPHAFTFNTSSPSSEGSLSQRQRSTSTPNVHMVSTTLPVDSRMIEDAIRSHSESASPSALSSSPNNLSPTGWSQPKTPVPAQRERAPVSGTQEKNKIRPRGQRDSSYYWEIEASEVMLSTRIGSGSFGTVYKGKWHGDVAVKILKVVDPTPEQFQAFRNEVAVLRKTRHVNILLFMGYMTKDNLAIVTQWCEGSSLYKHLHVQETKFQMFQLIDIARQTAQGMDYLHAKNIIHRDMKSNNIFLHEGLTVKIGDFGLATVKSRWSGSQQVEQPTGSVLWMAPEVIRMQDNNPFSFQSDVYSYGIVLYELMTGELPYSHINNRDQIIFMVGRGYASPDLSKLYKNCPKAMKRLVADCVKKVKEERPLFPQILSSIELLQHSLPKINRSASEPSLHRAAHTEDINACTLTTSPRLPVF

inhibition of BRAF [1]: potent inhibitors
inhibition of CRAF [2]: potent inhibitors
SMILES: Cc1ccc(NC(=O)c2ccnc(C(F)(F)F)c2)cc1-c1cc(OCCO)nc(N2CCOCC2)c1 [Compound of formula (I)]
anti-proliferative activity in cell lines [3]: anti-proliferative activity
tumor response in vivo [4]: tumor regression
tumor response in vivo [5]: tumor regression
